# How the values were obtained:
# collagenase = assay: Collagenase inhibition rate; type: biochemical
# Procedure: Experiment on Collagenase Inhibition Rate
# Protease buffer solution, protease, protease substrate, inhibitor (1,10-Phenanthroline). All reagents were stored at −20° C.
# a. Background blank well: 100 μL/well of protease buffer solution.
# b. Sample well: 100 μL, prepared into different concentrations.
# c. Positive control well: 10 μL of protease+90 μL of protease buffer solution.
# (3) After adding reagents according to the above groups, 100 μL of collagenase reaction mixture was added to each well, incubated in the dark, and then the OD value at 345 nm was measured.
# The incubation time depended on the activity of the sample to be tested, and the low activity sample could be incubated for 1-3 h.
# Collagenase inhibition rate (%)=(ODbackground well−ODsample well)/(ODbackground well−ODpositive control well).
# [1] = biological target: porcine pancreatic elastase (Sus scrofa, UniProt P00772); assay: Elastase inhibition rate; type: biochemical
# Procedure: Experiment on the Elastase Inhibition Rate
# Sample, positive control of catechin, Tris, HCl, porcine pancreatic elastase, N-succinyl-alanine-alanine-alanine-p-nitroaniline, DMSO.
# Preparation of a sample solution: 1 mg/mL sample solution was prepared (pure water or a buffer solution was used for preparation, and if insoluble in water or the buffer solution, the sample was firstly dissolved with DMSO, and then water or the buffer solution was added. In principle, the content of DMSO should not exceed 5%).
# Preparation of a positive control: 1 mg/mL catechin;
# Preparation of a buffer solution: 0.1 M of Tris-HCl buffer solution, PH=8.0;
# Preparation of a reaction substrate solution: N-succinyl-alanine-alanine-alanine-p-nitroaniline (AAAPVN) solution (2 mM);
# Preparation: 28.5 μL of porcine pancreatic elastase solution (0.171 U/mL) was taken and dissolved in 10 mL of Tris-HCl buffer solution.
# (2) The solution of 50 μL of sample, 50 μL of porcine pancreatic elastase and 100 μL of reaction substrate was added to a 96-well plate.
# (3) After keeping at room temperature for 5 min, an absorbance at 420 nm was measured.
# Elastase inhibition rate (%)=(1−sample OD420 nm/experimental well OD420 nm)×100%.
# [2] = system: IL-6 secretion, RAW264.7 cells; assay: Immunomodulatory activity: IL-6 secretion by RAW264.7 cells (ELISA); type: cell-based; conditions: for IL-6 pg/mL: RAW264.7, 24 h
# Procedure: (§1) Evaluation of the Immunomodulatory Activity of Dendrobium officinale Oligosaccharides RAW264.7 cells, TNF-α kit, IL-6 kit, distilled water. The logarithmic-growth RAW264.7 cells were taken and inoculated into 12-well plates after cell counting. The plate was placed in an incubator overnight, and then the cell supernatant was discarded. Different concentrations of Dendrobium officinale oligosaccharides, lipopolysaccharides and basal medium 1640 were added under aseptic operation, and the supernatant after 24 h of intervention was collected and stored at −20° C. for later use. The changes in TNF-α and IL-6 secretion were detected according to the instructions of the ELISA kit. The OD value was measured by a microplate reader with a detection wavelength of 450 nm. The OD value was substituted into the regression equation of the standard curve to calculate the increase rate of TNF-α and IL-6 secretion.
# [3] = system: TNF-α secretion, RAW264.7 cells; assay: Immunomodulatory activity: TNF-α secretion by RAW264.7 cells (ELISA); type: cell-based; conditions: for TNF-α: RAW264.7, 24 h
# Procedure: as §1
# Hacat cells = assay: Survival of Hacat cells; type: cell-based, human
# RAW264.7 cells = assay: Survival of RAW264.7 cells; type: cell-based
# [4] = system: secretion of hyaluronic acid, Hacat cells; assay: Promoting secretion of hyaluronic acid in Hacat cells (ELISA); type: cell-based, human; conditions: for Secretion of hyaluronic acid: Hacat cells, 24 h
# Procedure: Experiment on Promoting Secretion of Hyaluronic Acid
# Human immortalized […] (Hacat cells), human hyaluronic acid Elisa kit, distilled water.
# A 96-well plate was inoculated with […] of cell suspension per well, and a concentration of the suspension was 4×10^5 cells/mL. After 24 h of incubation, the original culture medium was discarded, then the cells were washed with PBS for 1-2 times and the serum-free medium containing different concentrations of the drug to be tested was added thereto, and continued to incubate for 24 h. A blank control without drugs and a TGF-β positive control were set. Then the cells were lysed with ripa lysis buffer solution containing 1% PMSF, the supernatant after centrifugation was taken, and the secretion of hyaluronic acid was detected according to the method provided in the […]. The OD value was measured by a microplate reader with a detection wavelength of 450 nm. The OD value was substituted into the regression equation of the standard curve to calculate the increase rate of the secretion of hyaluronic acid.
# [5] = DPPH free radical scavenging; type: biochemical
# Procedure: Experiment on the DPPH Free Radical Scavenging
# DPPH, water-soluble vitamin E (Trolox) (Trolox dissolved in absolute ethanol, with a concentration of 10 mM, stored at −20° C.), pure water.
# The drug to be tested was mixed with DPPH (a final concentration of 100 µM) and reacted at 30° C. for 1 h. 3 repeating wells were set, and a blank control well without drug and a Trolox positive control well were set at the same time. The OD value was measured by a microplate reader with a detection wavelength of 515 nm, and the anti-oxidation rate was calculated.
# Anti-oxidation rate (%)=(1−experimental well OD515nm/blank well OD515nm)×100%.
# [6] = final reaction concentration 1%
# [7] = final reaction concentration 4%
# [8] = final reaction concentration 8%
# [9] = final reaction concentration 11%
# [10] = final reaction concentration 15%
# [11] = final reaction concentration 20%
# porcine pancreatic elastase, sequence (P00772 27-266): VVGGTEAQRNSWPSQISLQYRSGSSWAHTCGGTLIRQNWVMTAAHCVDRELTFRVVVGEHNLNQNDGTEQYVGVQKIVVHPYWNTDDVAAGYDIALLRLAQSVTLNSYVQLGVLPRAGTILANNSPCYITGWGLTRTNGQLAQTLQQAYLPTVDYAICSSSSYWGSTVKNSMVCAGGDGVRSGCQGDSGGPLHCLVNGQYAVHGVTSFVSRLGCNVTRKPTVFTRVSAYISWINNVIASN
compound,measurement,setting,value
"c1cnc2c(c1)ccc1cccnc12 [Positive inhibitor, 1,10-Phenanthroline, reference compound]",Collagenase inhibition rate (%),collagenase; [6],102.23%
"O=C(O[C@@H]1Cc2c(O)cc(O)cc2O[C@@H]1c1ccc(O)c(O)c1)c1cc(O)c(O)c(O)c1 [epicatechin gallate, reference compound]",inhibition at 100 µg/mL,[1]; final reaction concentration 100 μg/ml,68.5%
O=C(O)C1O[C@@H](O)C(O)C(O)[C@@H]1O[C@@H]1OC(CO)[C@@H](O[C@@H]2OC(CO)[C@@H](O[C@@H]3OC(CO)[C@@H](O[C@@H]4OC(CO)[C@H](O[C@@H]5OC(CO)[C@H](O)C(O)C5O)C(O)C4O)C(O)C3O)C(O)C2O)C(O)C1O (stereo partly shown) [Dendrobium officinale oligosaccharide],secretion of IL-6 by RAW264.7 macrophages (in words),"[2]; concentration of 50 μg/mL, equivalent to the positive control LPS",significantly increased
same,IL-6 pg/mL,[2]; final reaction concentration 50 μg/mL,1593.01 pg/mL
same,IL-6 pg/mL,[2]; final reaction concentration 100 μg/mL,1376.42 pg/mL
same,IL-6 pg/mL,[2]; final reaction concentration 200 μg/mL,1117.33 pg/mL
same,secretion of TNF-α by RAW264.7 macrophages (in words),"[3]; concentration of 3.125 μg/mL, equivalent to the positive control LPS",significantly increased
same,TNF-α,[3]; final reaction concentration 3.125 μg/mL,1062.29 pg/mL
same,TNF-α,[3]; final reaction concentration 6.25 μg/mL,35.66 pg/mL
same,TNF-α,[3]; final reaction concentration 12.5 μg/mL,53.86 pg/mL
same,survival rate and survival time of cells,Hacat cells,increase the survival rate and survival time
same,elastase inhibition activity,[1]; concentration of 20%,> 10%
same,Elastase inhibition rate %,[1]; [7],−2.135%
same,Elastase inhibition rate %,[1]; [8],3.886%
same,Elastase inhibition rate %,[1]; [9],8.417%
same,Elastase inhibition rate %,[1]; [10],9.723%
same,Elastase inhibition rate %,[1]; [11],15.827%
same,survival rate and survival time of cells,RAW264.7 cells,increase the survival rate and survival time
same,activity to promote the secretion of hyaluronic acid,[4]; concentration of 8%-20%,> 0.3 ng/mL
same,Secretion of hyaluronic acid,[4]; [7],0.2294 ng/mL
same,Secretion of hyaluronic acid,[4]; [8],0.5530 ng/mL
same,Secretion of hyaluronic acid,[4]; [9],0.3691 ng/mL
same,Secretion of hyaluronic acid,[4]; [10],0.4930 ng/mL
same,Secretion of hyaluronic acid,[4]; [11],0.5392 ng/mL
same,collagenase inhibition activity,collagenase; concentration of 0.4%-4%,> 50%
same,Collagenase inhibition rate (%),collagenase; final reaction concentration 0.4%,50.32%
same,Collagenase inhibition rate (%),collagenase; final reaction concentration 0.8%,63.63%
same,Collagenase inhibition rate (%),collagenase; [6],72.20%
same,Collagenase inhibition rate (%),collagenase; final reaction concentration 2%,84.80%
same,Collagenase inhibition rate (%),collagenase; [7],110.54%
same,anti-oxidation rate,[5]; concentration of 15%-20%,> 20%
same,Anti-oxidation rate (%),[5]; [7],11.335%
same,Anti-oxidation rate (%),[5]; [8],14.346%
same,Anti-oxidation rate (%),[5]; [9],16.213%
same,Anti-oxidation rate (%),[5]; [10],21.155%
same,Anti-oxidation rate (%),[5]; [11],25.217%
"Cc1c(C)c2c(c(C)c1O)CCC(C)(C(=O)O)O2 (stereo not shown) [Trolox, reference compound]",Anti-oxidation rate (%),"[5]; final reaction concentration 25 (unit not given), DPPH, 30° C., 1 h",95.668%

# Reference: patent US20230257484A1, “DENDROBIUM OFFICINALE OLIGOSACCHARIDE, DENDROBIUM OFFICINALE OLIGOSACCHARIDE DERIVATIVE AND PREPARATION METHOD AND USE THEREOF” (KUNMING INSTITUTE OF BOTANY, CHINESE ACADEMY OF SCIENCES, priority 2021, published 2023)
